# *1 amine or outer side, *2 acyl side, *3 side chain or, on linkers, in order; H or OH if unused. Where a SMILES comes first, the peptide text is derived from it. Bridges are numbered along the chain shown (N, C = ends). [ ]: non-standard residue; d: D form. The star is where a group is joined. hTyr(3S-OH,4S-OH,3'-OSO3H) = N[C@H](C(=O)O)[C@H](O)[C@@H](O)c1ccc(O)c(OS(=O)(=O)O)c1; Orn(4R-OH,5R-OH) = O=C([C@H](C[C@@H](O)[C@@H](O)N[*:3])N[*:1])[*:2]; Pro(3S-OH,4S-Me) = C[C@H]1CN[C@H](C(=O)O)[C@H]1O; X1 = CCCCCOc1ccc(-c2cc(-c3ccc(C(=O)*)cc3)no2)cc1; Gln(3R-OH) = NC(=O)C[C@@H](O)[C@H](N)C(=O)O; Hyp = O=C(O)[C@@H]1C[C@@H](O)CN1
# Columns and labels:
# Aspergillus fumigatus [1] = test: Antifungal activity against Aspergillus fumigatus GIMCC 3.19 assessed as reduction in fungal growth incubated for 24 hrs by two fold broth dilution method; format: functional
# Cryptococcus neoformans [2] = test: Antifungal activity against Cryptococcus neoformans ATCC 32719 assessed as reduction in fungal growth incubated for 24 hrs by two fold broth dilution method; format: functional
# Candida tropicalis = test: Inhibition of Candida tropicalis ATCC750 chitin synthase at 300 ug/ml using UDP-GlcNAc as substrate incubated for 1 hr by microplate reader analysis relative to control; details: dose 300.0 µg/ml
# Candida albicans [3] = test: Antifungal activity against Candida albicans ATCC 76615 assessed as reduction in fungal growth incubated for 24 hrs by two fold broth dilution method; format: functional
# Aspergillus flavus [4] = test: Antifungal activity against Aspergillus flavus ATCC 16870 assessed as reduction in fungal growth incubated for 24 hrs by two fold broth dilution method; format: functional
# [5] = Inhibition of Candida tropicalis ATCC750 chitin synthase using UDP-GlcNAc as substrate incubated for 1 hr by microplate reader analysis
# Candida albicans [6] = test: Antifungal activity against Candida albicans ATCC 76615 assessed as reduction in fungal growth in presence of sorbitol incubated for 24 hrs by two fold broth dilution method; format: functional
# Candida albicans [7] = test: Antifungal activity against Candida albicans ATCC 76615 incubated for 72 hrs in presence of fluconazole by checker board assay; format: functional
# Candida albicans [8] = test: Antifungal activity against Candida albicans ATCC 76615 assessed as fluconazole MIC incubated for 72 hrs by checker board assay; format: functional
# Candida albicans [9] = test: Antifungal activity against micafungin resistant Candida albicans ATCC 76615 assessed as reduction in fungal growth incubated for 24 hrs by two fold broth dilution method; format: functional
# Aspergillus flavus [10] = test: Antifungal activity against Aspergillus flavus ATCC 16870 assessed as reduction in fungal growth in presence of sorbitol incubated for 24 hrs by two fold broth dilution method; format: functional
# Aspergillus flavus [11] = test: Antifungal activity against Aspergillus flavus ATCC 16870 incubated for 72 hrs in presence of fluconazole by checker board assay; format: functional
# Cryptococcus neoformans [12] = test: Antifungal activity against Cryptococcus neoformans ATCC 32719 incubated for 72 hrs in presence of fluconazole by checker board assay; format: functional
# Aspergillus flavus [13] = test: Antifungal activity against fluconazole resistant Aspergillus flavus ATCC 16870 assessed as reduction in fungal growth incubated for 24 hrs by two fold broth dilution method; format: functional
# Aspergillus fumigatus [14] = test: Synergistic antifungal activity against Aspergillus fumigatus GIMCC 3.19 assessed as fractional inhibitory concentration index incubated for 72 hrs in presence of polyoxin B by checker board assay; format: functional
# Aspergillus fumigatus [15] = test: Synergistic antifungal activity against Aspergillus fumigatus GIMCC 3.19 assessed as fractional inhibitory concentration index incubated for 72 hrs in presence of fluconazole by checker board assay; format: functional
# Aspergillus fumigatus [16] = test: Antifungal activity against Aspergillus fumigatus GIMCC 3.19 assessed as fluconazole MIC incubated for 72 hrs by checker board assay; format: functional
# Aspergillus flavus [17] = test: Antifungal activity against Aspergillus flavus ATCC 16870 assessed as fluconazole MIC incubated for 72 hrs by checker board assay; format: functional
# Aspergillus fumigatus [18] = test: Antifungal activity against Aspergillus fumigatus GIMCC 3.19 assessed as polyoxin B MIC incubated for 72 hrs by checker board assay; format: functional
# Cryptococcus neoformans [19] = test: Synergistic antifungal activity against Cryptococcus neoformans ATCC 32719 assessed as fractional inhibitory concentration index incubated for 72 hrs in presence of fluconazole by checker board assay; format: functional
# Aspergillus fumigatus [20] = test: Antifungal activity against Aspergillus fumigatus GIMCC 3.19 incubated for 72 hrs in presence of polyoxin B by checker board assay; format: functional
# Candida albicans [21] = test: Synergistic antifungal activity against Candida albicans ATCC 76615 assessed as fractional inhibitory concentration index incubated for 72 hrs in presence of polyoxin B by checker board assay; format: functional
# Candida albicans [22] = test: Antifungal activity against Candida albicans ATCC 76615 assessed as polyoxin B MIC incubated for 72 hrs by checker board assay; format: functional
# Candida albicans [23] = test: Synergistic antifungal activity against Candida albicans ATCC 76615 assessed as fractional inhibitory concentration index incubated for 72 hrs in presence of fluconazole by checker board assay; format: functional
# Cryptococcus neoformans [24] = test: Antifungal activity against fluconazole resistant Cryptococcus neoformans ATCC 32719 assessed as reduction in fungal growth incubated for 24 hrs by two fold broth dilution method; format: functional
# Aspergillus fumigatus [25] = test: Antifungal activity against Aspergillus fumigatus GIMCC 3.19 assessed as reduction in fungal growth in presence of sorbitol incubated for 24 hrs by two fold broth dilution method; format: functional
# Aspergillus flavus [26] = test: Antifungal activity against Aspergillus flavus ATCC 16870 incubated for 72 hrs in presence of polyoxin B by checker board assay; format: functional
# Cryptococcus neoformans [27] = test: Antifungal activity against Cryptococcus neoformans ATCC 32719 assessed as reduction in fungal growth in presence of sorbitol incubated for 24 hrs by two fold broth dilution method; format: functional
# Cryptococcus neoformans [28] = test: Antifungal activity against Cryptococcus neoformans ATCC 32719 incubated for 72 hrs in presence of polyoxin B by checker board assay; format: functional
# Aspergillus flavus [29] = test: Synergistic antifungal activity against Aspergillus flavus ATCC 16870 assessed as fractional inhibitory concentration index incubated for 72 hrs in presence of fluconazole by checker board assay; format: functional
# Cryptococcus neoformans [30] = test: Synergistic antifungal activity against Cryptococcus neoformans ATCC 32719 assessed as fractional inhibitory concentration index incubated for 72 hrs in presence of polyoxin B by checker board assay; format: functional
# Aspergillus fumigatus [31] = test: Antifungal activity against fluconazole resistant Aspergillus fumigatus GIMCC 3.19 assessed as reduction in fungal growth incubated for 24 hrs by two fold broth dilution method; format: functional
# Cryptococcus neoformans [32] = test: Antifungal activity against Cryptococcus neoformans ATCC 32719 assessed as fluconazole MIC incubated for 72 hrs by checker board assay; format: functional
# Aspergillus flavus [33] = test: Synergistic antifungal activity against Aspergillus flavus ATCC 16870 assessed as fractional inhibitory concentration index incubated for 72 hrs in presence of polyoxin B by checker board assay; format: functional
# Aspergillus fumigatus [34] = test: Antifungal activity against Aspergillus fumigatus GIMCC 3.19 incubated for 72 hrs in presence of fluconazole by checker board assay; format: functional
# Cryptococcus neoformans [35] = test: Antifungal activity against Cryptococcus neoformans ATCC 32719 assessed as polyoxin B MIC incubated for 72 hrs by checker board assay; format: functional
# Candida albicans [36] = test: Antifungal activity against fluconazole resistant Candida albicans ATCC 76615 assessed as reduction in fungal growth incubated for 24 hrs by two fold broth dilution method; format: functional
# Candida albicans [37] = test: Antifungal activity against Candida albicans ATCC 76615 incubated for 72 hrs in presence of polyoxin B by checker board assay; format: functional
# Aspergillus flavus [38] = test: Antifungal activity against Aspergillus flavus ATCC 16870 assessed as polyoxin B MIC incubated for 72 hrs by checker board assay; format: functional
smiles,measurement,setting,value
Cc1cc(C)cc(NC(=O)/C=C/C(=O)N2CCCC23Cc2ccccc2NC3=O)c1 (configuration not stated),MIC,Aspergillus fumigatus [1],32 µg/mL
same,MIC,Cryptococcus neoformans [2],32 µg/mL
same,inhibition,Candida tropicalis,45.7%
same,MIC,Candida albicans [3],16 µg/mL
same,MIC,Aspergillus flavus [4],32 µg/mL
same,IC50,[5],990 µM
O=C(/C=C/C(=O)N1CCCC12Cc1ccccc1NC2=O)Nc1ccc(F)cc1 (configuration not stated),MIC,Aspergillus fumigatus [1],8 µg/mL
same,MIC,Candida albicans [6],32 µg/mL
same,MIC,Candida albicans [7],2 µg/mL
same,MIC,Candida albicans [8],1 µg/mL
same,MIC,Candida albicans [9],64 µg/mL
same,MIC,Aspergillus flavus [10],64 µg/mL
same,MIC,Aspergillus flavus [11],4 µg/mL
same,MIC,Cryptococcus neoformans [12],2 µg/mL
same,MIC,Aspergillus flavus [13],32 µg/mL
same,fractional inhibitory concentration index (FICI),Aspergillus fumigatus [14],0.75
same,fractional inhibitory concentration index (FICI),Aspergillus fumigatus [15],0.75
same,MIC,Cryptococcus neoformans [2],8 µg/mL
same,MIC,Aspergillus fumigatus [16],2 µg/mL
same,MIC,Aspergillus flavus [17],2 µg/mL
same,MIC,Aspergillus fumigatus [18],2 µg/mL
same,fractional inhibitory concentration index (FICI),Cryptococcus neoformans [19],0.75
same,MIC,Aspergillus fumigatus [20],4 µg/mL
same,fractional inhibitory concentration index (FICI),Candida albicans [21],0.75
same,MIC,Candida albicans [22],4 µg/mL
same,fractional inhibitory concentration index (FICI),Candida albicans [23],0.75
same,MIC,Cryptococcus neoformans [24],256 µg/mL
same,MIC,Aspergillus fumigatus [25],128 µg/mL
same,MIC,Aspergillus flavus [26],8 µg/mL
same,inhibition,Candida tropicalis,77.9%
same,MIC,Cryptococcus neoformans [27],64 µg/mL
same,MIC,Cryptococcus neoformans [28],8 µg/mL
same,fractional inhibitory concentration index (FICI),Aspergillus flavus [29],0.75
same,fractional inhibitory concentration index (FICI),Cryptococcus neoformans [30],1.5
same,MIC,Aspergillus fumigatus [31],256 µg/mL
same,MIC,Cryptococcus neoformans [32],4 µg/mL
same,fractional inhibitory concentration index (FICI),Aspergillus flavus [33],1.5
same,MIC,Candida albicans [3],4 µg/mL
same,MIC,Aspergillus flavus [4],8 µg/mL
same,MIC,Aspergillus fumigatus [34],2 µg/mL
same,MIC,Cryptococcus neoformans [35],8 µg/mL
same,IC50,[5],130 µM
same,MIC,Candida albicans [36],64 µg/mL
same,MIC,Candida albicans [37],1 µg/mL
same,MIC,Aspergillus flavus [38],4 µg/mL
"CCCCCOc1ccc(-c2cc(-c3ccc(C(=O)N[C@H]4C[C@@H](O)[C@@H](O)NC(=O)[C@@H]5[C@@H](O)[C@@H](C)CN5C(=O)[C@H]([C@H](O)CC(N)=O)NC(=O)[C@H]([C@H](O)[C@@H](O)c5ccc(O)c(OS(=O)(=O)O)c5)NC(=O)[C@@H]5C[C@@H](O)CN5C(=O)[C@H]([C@@H](C)O)NC4=O)cc3)no2)cc1 [MICAFUNGIN] (X1-[Orn(4R-OH,5R-OH)]T[Hyp][hTyr(3S-OH,4S-OH,3'-OSO3H)][Gln(3R-OH)][Pro(3S-OH,4S-Me)]; lactam 1-C)",MIC,Candida albicans [9],> 256 µg/mL
OC(Cn1cncn1)(Cn1cncn1)c1ccc(F)cc1F [FLUCONAZOLE],MIC,Aspergillus fumigatus [1],4 µg/mL
same,MIC,Aspergillus flavus [13],> 256 µg/mL
same,MIC,Cryptococcus neoformans [2],8 µg/mL
same,MIC,Cryptococcus neoformans [24],> 256 µg/mL
same,MIC,Aspergillus fumigatus [31],> 256 µg/mL
same,MIC,Candida albicans [3],4 µg/mL
same,MIC,Aspergillus flavus [4],8 µg/mL
same,MIC,Candida albicans [36],> 256 µg/mL
COc1ccccc1NC(=O)/C=C/C(=O)N1CCCC12Cc1ccccc1NC2=O (configuration not stated),MIC,Aspergillus fumigatus [1],8 µg/mL
same,MIC,Cryptococcus neoformans [2],64 µg/mL
same,inhibition,Candida tropicalis,65.2%
same,MIC,Candida albicans [3],8 µg/mL
same,MIC,Aspergillus flavus [4],16 µg/mL
same,IC50,[5],300 µM
COc1cc(NC(=O)/C=C/C(=O)N2CCCC23Cc2ccccc2NC3=O)c(OC)cc1Cl (configuration not stated),MIC,Aspergillus fumigatus [1],32 µg/mL
same,MIC,Cryptococcus neoformans [2],32 µg/mL
same,inhibition,Candida tropicalis,67.9%
same,MIC,Candida albicans [3],8 µg/mL
same,MIC,Aspergillus flavus [4],16 µg/mL
same,IC50,[5],200 µM
Cc1ccccc1NC(=O)/C=C/C(=O)N1CCCC12Cc1ccccc1NC2=O (configuration not stated),MIC,Aspergillus fumigatus [1],8 µg/mL
same,MIC,Cryptococcus neoformans [2],64 µg/mL
same,inhibition,Candida tropicalis,47.2%
same,MIC,Candida albicans [3],8 µg/mL
same,MIC,Aspergillus flavus [4],16 µg/mL
same,IC50,[5],970 µM
O=C(/C=C/C(=O)N1CCCC12Cc1ccccc1NC2=O)Nc1ccc(Cl)cc1 (configuration not stated),MIC,Aspergillus fumigatus [1],4 µg/mL
same,MIC,Candida albicans [6],32 µg/mL
same,MIC,Candida albicans [9],128 µg/mL
same,MIC,Aspergillus flavus [10],64 µg/mL
same,MIC,Aspergillus flavus [13],64 µg/mL
same,MIC,Cryptococcus neoformans [2],16 µg/mL
same,MIC,Cryptococcus neoformans [24],128 µg/mL
same,MIC,Aspergillus fumigatus [25],64 µg/mL
same,inhibition,Candida tropicalis,71.8%
same,MIC,Cryptococcus neoformans [27],128 µg/mL
same,MIC,Aspergillus fumigatus [31],64 µg/mL
same,MIC,Candida albicans [3],4 µg/mL
same,MIC,Aspergillus flavus [4],8 µg/mL
same,IC50,[5],170 µM
same,MIC,Candida albicans [36],128 µg/mL
